Patent US10925856B2, “Methods and compositions involving bucindolol for the treatment of atrial fibrillation” (priority 2018, dated 2021)

Assay: clinical
Details: human, in vivo
Text: Based on FDA interactions and recommendations^63 the inventor sought to categorize CYP2D6 genetic variation in every patient in GENETIC-AF.
CYP2D6 polymorphisms were identified using the xTAG® CYP2D6 Kit v3 manufactured by Luminex Corporation, with the assay performed by Esoterix, Boulder, Colo. on DNA extracted from whole blood by LabCorp's subsidiary Covance, of Salt Lake City, Utah See Table 41 in the Appendix for identified polymorphisms.
Sparse sampling of bucindolol hydrochloride plasma concentrations for population pharmacokinetic analysis. The analysis plan for the substudy will be prepared separately prior to unblinding.

CC(C)(Cc1c[nH]c2ccccc12)NCC(O)COc1ccccc1C#N (centres unmarked) [bucindolol, 2-(3-(1-(1H-indol-3-yl)-2-methylpropan-2-ylamino)-2-hydroxypropoxy)benzonitrile]
Plasma concentration in PMs relative to IMs (12 weeks): 5.7 fold
concentration at 12 weeks (Drug levels as measured in PMs): 200 to 500 nM
